Measurements as given in US12594292B2, “Antiviral prodrugs, intermediate-and long-acting formulations and methods” (priority 2022, dated 2026).
Where two headings read alike, the source gives them in different places.

Key:
[1] = system: Huh7.5; assay: Antiviral evaluation of cyanobenzyl analogs, Huh7.5; type: cell-based
[2] = in vitro; details: human
[3] = in vitro; details: human; remark: listed apart in the source
[4] = system: Calu 3; assay: Antiviral evaluation of cyanobenzyl analogs, Calu 3; type: cell-based
[5] = system: Huh7.5; assay: Cytotoxicity of cyanobenzyl analogs, Huh7.5
[6] = system: Calu 3; assay: Cytotoxicity of cyanobenzyl analogs, Calu 3
[7] = system: SARS-CoV-2 isolate USA-WA1/2020; assay: SARS-CoV-2 infection in PSC-human lung cells, qRT-PCR (Example 7); type: cell-based; details: Severe acute respiratory syndrome coronavirus 2; PSC-human lung cells, MOI 0.01, 48 hours
[8] = system: SARS-CoV-2 isolate USA-WA1/2020; assay: SARS-CoV-2 infection in Caco-2 cells, qRT-PCR (Example 7); type: cell-based; details: Severe acute respiratory syndrome coronavirus 2; Caco-2 cells, MOI 0.01, 48 hours
[9] = in vitro; details: human; remark: listed apart in the source
[10] = in vitro; details: human; remark: listed apart in the source
[11] = in vitro; details: African green monkey
[12] = CellTiter-Glo luminescent cell viability assay, Vero E6 (Example 3); type: cell-based; details: African green monkey
Procedure: CellTiter-glo luminescent cell viability assay: Approximately 10^4 Vero E6 cells per well were seeded in opaque walled 96 well cell culture plates and incubated overnight. Compounds or controls were added at the indicated concentrations. […] Viability was calculated compared to untreated controls and CC50 values were calculated using Prism 8.
Determination of Cytotoxicity: The 50% cytotoxic concentrations (CC50) were determined with Cell Titer Glo (Cat. #G7570, Promega, Madison, WI) according to the manufacturer's instructions. The calculated CC50 values are shown in the foregoing table.
Relative viability was measured by CellTiter-Glo luminescent cell viability assay, as depicted at FIG. 2.

[13] = Seven day oral pharmacokinetics in Syrian hamsters; type: in vivo; details: after oral administration of ODBG-P-RVn
Procedure: ODBG-P-RVn in 0.1M sodium carbonate/bicarbonate buffer, pH 9.0, was administered to Syrian Hamsters by oral gavage every 12 hours for seven days. ODBG-P-RVn was present as the sodium salt.
FIG. 4A and FIG. 4B depict the seven day oral pharmacokinetics in Syrian hamsters. Syrian hamsters were given vehicle or ODBG-P-RVn by oral gavage every 12 hours for 7 days. Groups of 3 animals received vehicle or drug at doses of 16.9 and 13.2 mg/kg. Animals were weighed daily and monitored for clinical signs.
Analytical Methods: ODBG-P-RVn: Hamster plasma samples (10 μL) containing ODBG-P-RVn and K2EDTA as the anticoagulant were added to polypropylene tubes containing water (100 μL), internal standard solution (10 μL; 1,000 ng/mL of ODE-P-RVn in ACN:DMF (1:1, v/v)), and 10 μL of ACN:DMF (1:1, v/v). The solutions were mixed, then acidified with phosphoric acid, 85% w/v:water (1:19, v/v; 10 μL), mixed, then diluted with 200 μL of IPA, mixed, then diluted with 500 μL of water, and mixed. The samples were extracted with a Sep-Pak® tC18 96-well solid phase extraction plate (25 mg; Waters, Milford, MA). Extraction occurred under positive pressure conditions using nitrogen. Samples were washed serially with 1 mL of water:acetonitrile:formic acid (475:25:0.5, v/v/v) and 0.4 mL of water:acetonitrile:formic acid (350:150:0.5, v/v/v) before being serially eluted with 100 μL and 150 μL of water:{acetonitrile:isopropyl alcohol (1:1, v/v)}:formic acid:ammonium formate:citric acid solution, 2% w/v (15:85:0.1:0.1:0.1, v/v/v/w/v). The citric acid solution was prepared as water:citric acid monohydrate (20:0.4, v/w). After elution, 100 μL of water was added to each sample. The ODBG-P-RVn extracts were analyzed using an Agilent 1200 HPLC system (Agilent, Santa Clara, CA) coupled to an API5500 mass analyzer (SCIEX, Foster City, CA). Analytes were chromatographically separated using a Dacapo DX-C18 MF column (100×2 mm, 2.5 μm; ImtaktUSA, Portland, OR) using a mobile phase system consisting of Mobile Phase A (water:formic acid:[water:ammonium formate:citric acid (25:5:0.5, v/w/w)](1.000:1:1, v/v/v) and Mobile Phase B (acetonitrile:isopropyl alcohol:formic acid:[water:ammonium formate:citric acid (25:5:0.5, v/w/w)](800:200:1:1, v/v/v/v). The total analytical run time was 4.5 minutes. The mobile phase was nebulized using heated nitrogen in a Turbo-V source/interface set to electrospray positive ionization mode. The ionized compounds were detected using multiple reaction monitoring with transitions m/z 788.4>229 (V2043) and 668.4>467.2 (V2041). This method is applicable for measuring ODBG-P-RVn concentrations ranging from 6.25 to 3,000 ng/mL using 10.0 μL of plasma for extraction. The peak areas of ODBG-P-RVn and RVn were acquired using Analyst v. 1.6.2 (SCIEX, Framingham, MA). The calibration curve was obtained by fitting the peak area ratios of the analyte/I.S. and the standard concentrations to a linear equation with 1/x2 weighting, using Analyst. The equation of the calibration curve was then used to interpolate the concentrations of the analyte in the samples using their peak area ratios. The peak areas used for the calculations were not rounded.
The solutions were mixed and centrifuged at 16,000 g for five minutes. […] The GS-441524 extracts were analyzed using an Acquity UPLC system (Waters, Milford, MA) coupled to a G2-S QTof mass analyzer (Waters, Milford, MA). […]

[14] = in vitro; details: human; remark: listed apart in the source
[15] = in vitro; details: human; remark: listed apart in the source

CCCCCCCCCCCCCCCCCCOC[C@H](COP(=O)(O)OC[C@H]1O[C@@](C#N)(c2ccc3c(N)ncnn23)[C@@H](O)C1O)OCc1ccccc1C#N (some centres unmarked) [OD(2-CN-Bn)G-P-RVn, 1-O-Octadecyl-2-O-(2-cyanobenzyl)-sn-glyceryl-phospho-RVn]
EC50 [1]: 10.2 ± 17 nM
EC90 [1]: 281 ± 30 nM
SI [1]: >980
CC50 [2]: 82800 nM
CC50 [3]: > 100000 nM
SI ([4]; Calu 3): 909
EC50 ([4]; Calu-3): 91 ± 25 nM
EC90 ([4]; Calu-3): 186 ± 47 nM

CCCCCCCCCCCCCCCCCCOC[C@H](COP(=O)(O)OC[C@H]1O[C@@](C#N)(c2ccc3c(N)ncnn23)[C@H](O)[C@@H]1O)OCc1cccc(C#N)c1 [OD(3-CN-Bn)G-P-RVn, 1-O-Octadecyl-2-O-(3-cyanobenzyl)-sn-glyceryl-phospho-RVn]
SI [1]: 2066
EC50 ([1]; read-out: EC50): 24 ± 6 nM
EC90 ([1]; read-out: EC90): 77 ± 17 nM
CC50 [5]: 49600 nM
SI ([4]; Calu 3): 1810
EC50 ([4]; Calu 3, read-out: EC50): 34 ± 7 nM
EC90 ([4]; Calu 3, read-out: EC90): 65 ± 36 nM
CC50 [6]: 61600 nM

N#C[C@@]1(c2ccc3c(N)ncnn23)O[C@H](CO)[C@@H](O)[C@H]1O [RVn, 2-C-(4-aminopyrrolo[2,1-f][1,2,4]triazin-7-yl)-2,5-anhydro-D-altrononitrile, reference compound]
EC90 [7]: 2620 nM
EC90 [8]: 1750 nM
CC50 at 48.5 h [9]: > 100000 nM
CC50 at 48.5 h [10]: > 100000 nM
CC50 at 48.5 h [11]: > 100000 nM
CC50 at 48.5 h [12]: > 100000 nM
plasma levels of RVn versus EC90 for RVn in PSC lung cells and Vero E6 cells [13]: less than the EC90
time of peak plasma levels of RVn, the nucleoside metabolite of ODBG-P-RVn [13]: 3 h
CC50 at 48.5 h [14]: > 100000 nM
CC50 at 48.5 h [15]: > 100000 nM
